Laboratory results: patent US5292884A, “Cyclic hydroxamic acids” (Biomide Investment Limited Partnership, priority 1992, dated 1994)

Target: T1, 12-lipoxygenase (Sus scrofa, UniProt P16469)
T1 construct: porcine Leukocyte cytosol in buffer; from tissue; host or cells: porcine leukocyte cytosol
T1 sequence (P16469 1-663): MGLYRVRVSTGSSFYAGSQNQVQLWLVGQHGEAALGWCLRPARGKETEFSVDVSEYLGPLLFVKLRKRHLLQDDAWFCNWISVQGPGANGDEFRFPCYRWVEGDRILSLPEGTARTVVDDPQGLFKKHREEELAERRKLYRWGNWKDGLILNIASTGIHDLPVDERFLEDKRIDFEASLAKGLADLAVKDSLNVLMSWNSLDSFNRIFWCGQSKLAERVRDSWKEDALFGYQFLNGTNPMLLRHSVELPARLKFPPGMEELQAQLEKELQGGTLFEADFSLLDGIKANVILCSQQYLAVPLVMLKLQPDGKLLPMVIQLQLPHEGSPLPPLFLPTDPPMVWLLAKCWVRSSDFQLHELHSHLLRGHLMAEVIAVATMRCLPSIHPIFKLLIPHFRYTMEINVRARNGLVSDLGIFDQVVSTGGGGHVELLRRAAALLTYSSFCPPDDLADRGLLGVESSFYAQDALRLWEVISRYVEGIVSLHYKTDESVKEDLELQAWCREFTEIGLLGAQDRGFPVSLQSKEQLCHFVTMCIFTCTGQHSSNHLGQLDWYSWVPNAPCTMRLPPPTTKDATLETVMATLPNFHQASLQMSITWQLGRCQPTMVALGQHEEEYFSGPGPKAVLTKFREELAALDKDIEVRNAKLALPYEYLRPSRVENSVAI
Test: 12-lipoxygenase inhibition in porcine leukocyte cytosol ([1-14C] arachidonic acid conversion to 12-HETE, TLC)
Type: biochemical
Settings: porcine leukocyte cytosol 0.075 mg/mL, pH 8.0, 5 min preincubation, 5 μM arachidonic acid, 15 min at 37° C.
Description: The standard assay procedure is as follows:
Compounds of the present invention were added in 3 μL of DMSO at an appropriate concentration to porcine Leukocyte cytosol in buffer (final protein concentration of 0.075 mg/mL in 0.1M HEPES, 2 mM caCl2, 1 mM MgCl2, pH=8.0) and preincubated for 5 min at 37° C. [1-^14 C] arachidonic acid was added (final concentration of 5 μM) and the reactions were incubated for 15 min at 37° C. and terminated by the addition of HCl. Total reaction volume was 100 μL. Assays also included reduced glutathione in the assay at 25 μM or following the assay at 1 mM and/or cold carrier 12-HETE and arachidonic acid added at the end of the incubation at concentrations of 5 and 100 μM, respectively. Sample was extracted with water-saturated ethyl acetate and the extracts were spotted onto TLC plates. The plates were developed with dichloromethane/ethyl acetate/acetic acid in a ratio of 70:30:1. Under these conditions, the Rf's of 12-HETE and arachidonic acid are 0.30 and 0.45 , respectively. The percentage conversion to 12-HETE was calculated from the percentage of the total ^14 C on the TLC plate that coelutes with a standard of 12-HETE.

Row | SMILES | IC50 [nM]
1 | O=C1C(CCCc2ccccc2)C(c2ccccc2)CCN1O (centres unmarked) [1(hh), 1-Hydroxy-4-phenyl-3-(3-phenylpropyl)-piperidin-2-one] | 1050
2 | O=C1C[C@@H](CCCc2ccccc2)C[C@@H](c2ccccc2)N1O (relative stereo) [1(ddd), cis-1-Hydroxy-6-phenyl-4-(3-phenylpropyl)-piperidin-2-one] | 4200
3 | O=C1C[C@@H](c2ccccc2)C[C@H](CCCc2ccccc2)N1O (relative stereo) [1(k), trans-1-hydroxy-4-phenyl-6-(3-phenylpropyl)-piperidin-2-one] | 390
4 | O=C1C[C@@H](c2ccccc2)C[C@H](CCCCCCCc2ccccc2)N1O (relative stereo) [1(m), trans-1-hydroxy-4-phenyl-6-(7-phenylheptyl)-piperidin-2-one] | 200
5 | CCCCCCCC[C@@H]1C[C@H](c2cccc3ccccc23)CC(=O)N1O (relative stereo) [1(n), cis-1-hydroxy-4-(1-naphthyl)-6-octylpiperidin-2-one] | 700
6 | CCCCCCCCCCCC[C@@H]1C(=O)N(O)CC[C@@H]1c1ccccc1 (relative stereo) [1(r), cis-1-hydroxy-4-phenyl-3-dodecylpiperidin-2-one] | 800
7 | CCCCCCCCCCCC[C@H]1C[C@H](c2ccccc2)CC(=O)N1O (relative stereo) [1(e), trans-1-hydroxy-6-dodecyl-4-phenylpiperidin-2-one] | 500
8 | CCCCCCCCCCCCCC[C@H]1[C@H](c2ccccc2)CCC(=O)N1O (relative stereo) [1(bb), trans-1-Hydroxy-5-phenyl-6-tetradecyl-piperidin-2-one] | 2000
9 | O=C1C(c2ccccc2)C(CCCc2ccccc2)CCN1O (centres unmarked) [1(vv), 1-Hydroxy-3-phenyl-4-(3-phenylpropyl)-piperidin-2-one] | 1000
10 | CCCCCCCCCCCC[C@@H]1C[C@H](Cc2ccccc2)CC(=O)N1O (relative stereo) [1(ll), cis-4-Benzyl-6-dodecyl-1-hydroxy-piperidin-2-one] | 800
11 | CCCCCCCCCCCC[C@@H]1C[C@H](c2ccccc2)CC(=O)N1O (relative stereo) [1(d), cis-1-hydroxy-6-dodecyl-4-phenyl-piperidine-2-one] | 300
